Test results as given in US9636335B2, “Heteroaryl compounds as 5-HT4 receptor ligands” (Suven Life Sciences Ltd, priority 2011, dated 2017).
Counter-ions that a name gives are not always drawn.

Key:
[1] = biological target: recombinant human 5-HT4 receptor (Homo sapiens (Human), UniProt Q13639); test: Determination of EC50 values for 5-HT4 receptor (CHO cells, pCRE-Luc reporter); format: cell-based; details: CHO cells expressing human 5-HT4 receptor, luciferase activity, 4 hours incubation
Description: A stable CHO cell line expressing recombinant human 5-HT4 receptor and pCRE-Luc reporter system was used for cell-based assay. The assay offers a non-radioactive based approach to determine binding of a compound to GPCRs. In this specific assay, the level of intracellular cyclic AMP which is modulated by activation or inhibition of the receptor is measured. The recombinant cells harbor luciferase reporter gene under the control of cAMP response element.
The above cells were grown in 96 well clear bottom white plates in Hams F12 medium containing 10% fetal bovine serum (FBS). Prior to the addition of compounds or standard agonist, cells were serum starved overnight. Increasing concentrations of test compounds were added in OptiMEM medium to the cells. The incubation was continued at 37° C. in CO2 incubator for 4 hours. Medium was removed and cells were washed with phosphate buffered saline. The cells were lysed and luciferase activity was measured in a Luminometer. Luminescence units were plotted against the compound concentrations using Graphpad software.

[2] = system: Male Wister rats; test: Object recognition task model; format: in vivo; details: p.o., rat
Description: The cognition enhancing properties of compounds of this invention were estimated by using this model.
Male Wister rats (230-280 grams) were used as experimental animals. Four animals were housed in each cage. […] Also the rats were habituated to individual arenas for 1 hour in the absence of any objects.
One group of 12 rats received vehicle (1 mL/Kg) orally and another set of animals received compound of the formula (I) either orally or i.p., before one hour of the familiar (T1) and choice trial (T2).
The experiment was carried out in a 50×50×50 cm open field made up of acrylic. In the familiarization phase, (T1), the rats were placed individually in the open field for 3 minutes, in which two identical objects (plastic bottles, 12.5 cm height×5.5 cm diameter) covered in yellow masking tape alone (a1 and a2) were positioned in two adjacent corners, 10 cms from the walls. After 24 hours of the (T1) trial for long-term memory test, the same rats were placed in the same arena as they were placed in T1 trial. Choice phase (T2) rats were allowed to explore the open field for 3 minutes in presence of one familiar object (a3) and one novel object (b) (Amber color glass bottle, 12 cm high and 5 cm in diameter). Familiar objects presented similar textures, colors and sizes. During the T1 and T2 trial, explorations of each object (defined as sniffing, licking, chewing or having moving vibrissae whilst directing the nose towards the object at a distance of less than 1 cm) were recorded separately by stopwatch. […] T1 is the total time spent exploring the familiar objects (a1+a2). T2 is the total time spent exploring the familiar object and novel object (a3+b).

[3] = Rodent pharmacokinetic study; format: in vivo, Male Wister rats; details: plasma, Wistar/Male rat
Description: Three to five animals were housed in each cage. […] Animals were fasted over night before oral dosing (p.o) and food pellets were allowed 2 hours post dosing, whereas intravenous dosing food and water were provided as ad libitum. Three rats were dosed with compounds of formula (I) (10 mg/kg) orally and intravenously (05 mg/kg).
At each time point blood was collected through jugular vein and immediately replenish with an equivalent volume of normal saline from freely moving rats. Collected blood was transferred into a labeled eppendr off containing 10 μL of heparin as anticoagulant. Typically blood samples were collected as following time points: Pre dose, 0.08 (only i.v.), 0.25, 0.5, 1, 2, 4, 6, 8, and 24 hours post dose (n=3). Blood was centrifuged at 4000 rpm for 10 minutes. Plasma was prepared and stored frozen at −20° C. until analysis.
Pharmacokinetic parameters Cmax, Tmax, AUCt, T1/2 and Bioavailability were calculated by non-compartmental model using standard non-compartmental model by using WinNonLin 5.0.1 or Phoenix WinNonlin 6.2 version Software package.

recombinant human 5-HT4 receptor, sequence (Q13639 whole entry): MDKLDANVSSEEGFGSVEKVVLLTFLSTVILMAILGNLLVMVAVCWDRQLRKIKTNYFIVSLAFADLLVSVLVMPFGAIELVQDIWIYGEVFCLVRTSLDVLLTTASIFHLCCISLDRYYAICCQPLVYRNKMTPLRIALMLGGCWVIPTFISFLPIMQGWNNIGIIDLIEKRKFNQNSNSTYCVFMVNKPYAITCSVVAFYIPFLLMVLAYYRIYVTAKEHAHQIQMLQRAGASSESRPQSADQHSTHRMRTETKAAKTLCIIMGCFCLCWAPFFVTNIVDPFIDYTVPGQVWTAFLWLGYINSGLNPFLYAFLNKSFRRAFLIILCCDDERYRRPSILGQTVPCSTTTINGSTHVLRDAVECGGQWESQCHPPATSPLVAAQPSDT

| Compound | EC50 [1] | also measured |
| --- | --- | --- |
| Nc1c(Cl)cc(-c2nnc(C3CCN(CC4CCC4)CC3)o2)c2c1OCCO2 [Example 15, 6-Chloro-8-[5-(1-cyclobutylmethyl-piperidin-4-yl)-[1,3,4]oxadiazol-2-yl]-2,3-dihydro-benzo[1,4]dioxin-5-ylamine] | 6.2 nM | Exploration time mean ± S.E.M, Familiar object ([2]; 1 mg/kg): 12.03 ± 1.73 s; Exploration time mean ± S.E.M, Novel object ([2]; 1 mg/kg): 19.14 ± 3.02 s; Inference ([2]; 1 mg/kg): Active |
| Nc1c(Cl)cc(-c2nnc(C3CCN(CC4CCC4)CC3)o2)c2c1CCCO2 [Example 10, 6-Chloro-8-[5-(1-cyclobutylmethyl-piperidin-4-yl)-[1,3,4]oxadiazol-2-yl]-chroman-5-ylamine] | 5.7 nM | – |
| CC(C)N1CCC(c2nnc(-c3cc(Cl)c(N)c4c3OCCC4)o2)CC1 [Example 12, 6-Chloro-8-[5-(1-isopropyl-piperidin-4-yl)-[1,3,4]oxadiazol-2-yl]-chroman-5-ylamine] | 15.3 nM | – |
| Nc1c(Cl)cc(-c2nnc(CCN3CCCCC3)o2)c2c1CCCO2 [Example 18, 6-Chloro-8-[5-(2-piperidin-1-yl-ethyl)-[1,3,4]oxadiazol-2-yl]-chroman-5-ylamine] | 53 nM | – |
| Nc1c(Cl)cc(-c2nnc(C3CCN(C4CCOCC4)CC3)o2)c2c1CCCO2.O=C(O)C(=O)O [Example 25, 6-Chloro-8-{5-[1-(tetrahydro-pyran-4-yl)-piperidin-4-yl]-[1,3,4]oxadiazol-2-yl}-chroman-5-ylamine oxalate salt] | 5.7 nM | Exploration time mean ± S.E.M, Familiar object ([2]; 3 mg/kg): 5.93 ± 0.87 s; Exploration time mean ± S.E.M, Novel object ([2]; 3 mg/kg): 14.70 ± 2.34 s; Inference ([2]; 3 mg/kg): Active |
| Nc1c(Cl)cc(-c2nnc(C3CCN(C4CCOCC4)CC3)o2)c2c1CCO2 [Example 7, 5-Chloro-7-{5-[1-(tetrahydropyran-4-yl)piperidin-4-yl]-[1,3,4]oxadiazol-2-yl}-2,3-dihydro benzofuran-4-yl amine oxalate salt] | 7 nM | – |
| Nc1c(Cl)cc(-c2nnc(C3CCN(C4CCCC4)CC3)o2)c2c1CCCO2 [Example 17, 6-Chloro-8-[5-(1-cyclopentyl-piperidin-4-yl)-[1,3,4]oxadiazol-2-yl]-chroman-5-ylamine tartarate salt] | 2.3 nM | – |
| Nc1c(Cl)cc(-c2nnc(C3CCN(CC4CC4)CC3)o2)c2c1CCCO2 [Example 11, 6-Chloro-8-[5-(1-cyclopropylmethyl-piperidin-4-yl)-[1,3,4]oxadiazol-2-yl]-chroman-5-ylamine] | 10.2 nM | – |
| Nc1c(Cl)cc(-c2nnc(C3CCN(CC4CCOCC4)CC3)o2)c2c1CCCO2.O=C(O)C(=O)O [Example 26, 6-Chloro-8-{5-[1-(tetrahydro-pyran-4-ylmethyl)-piperidin-4-yl]-[1,3,4]oxadiazol-2-yl}-chroman-5-ylamine oxalate salt] | 18 nM | Exploration time mean ± S.E.M, Familiar object ([2]; 3 mg/kg): 7.12 ± 1.44 s; Exploration time mean ± S.E.M, Novel object ([2]; 3 mg/kg): 14.42 ± 2.22 s; Inference ([2]; 3 mg/kg): Active |
| Nc1c(Cl)cc(-c2nnc(C3C4CN(CC5CCC5)CC43)o2)c2c1CCCO2 (stereo not drawn) [Example 23, 6-Chloro-8-[5-(3-cyclobutylmethyl-3-aza-bicyclo[3.1.0]hex-6-yl)-[1,3,4]oxadiazol-2-yl]-chroman-5-ylamine oxalate salt] | 20 nM | – |
| COCCCN1CCC(c2nnc(-c3cc(Cl)c(N)c4c3OCCC4)o2)CC1 [Example 13, 6-Chloro-8-{5-[1-(3-methoxy-propyl)-piperidin-4-yl]-[1,3,4]oxadiazol-2-yl}-chroman-5-ylamine] | 20.4 nM | – |
| CC(C)N1CC2C(C1)C2c1nnc(-c2cc(Cl)c(N)c3c2OCCC3)o1 (stereo not drawn) [Example 22, 6-Chloro-8-[5-(3-isopropyl-3-aza-bicyclo[3.1.0]hex-6-yl)-[1,3,4]oxadiazol-2-yl]-chroman-5-ylamine oxalate salt] | 48 nM | – |
| CCOC(=O)N1CCC(N2CCC(c3nnc(-c4cc(Cl)c(N)c5c4OCCO5)o3)CC2)CC1 [Example 6, 4-[5-(8-amino-7-chloro-2,3-dihydrobenzo[1,4]dioxin-5-yl)-[1,3,4]oxadiazol-2-yl]-[1,4′]bipiperidinyl-1′-carboxylic acid ethyl ester oxalate salt] | 4.2 nM | – |
| COCCCN1CCC(c2nnc(-c3nn(C(C)C)c4ccccc34)o2)CC1.O=C(O)C(=O)O [Example 3, 1-isopropyl-3-{5-[1-(3-methoxypropyl)piperidin-4-yl]-[1,3,4]oxadiazol-2-yl}-1H-indazole oxalate salt] | – | Tmax ([3]; 5 mg/kg, intravenous (bolus)): 4.8 min; Tmax ([3]; 10 mg/kg, oral (gavage)): 25.2 ± 7.2 min |
| CC(C)n1nc(-c2nnc(C3CCN(CC4CC4)CC3)o2)c2ccccc21 [Example 39, 3-[5-(1-Cyclopropylmethyl-piperidin-4-yl)-[1,3,4]oxadiazol-2-yl]-1-isopropyl-1H-indazole] | – | AUC(0-t) ([3]; 5 mg/kg, intravenous (bolus)): 1060 ± 163 ng·h/mL; Tmax ([3]; 5 mg/kg, intravenous (bolus)): 4.8 min; half-life ([3]; 5 mg/kg, intravenous (bolus)): 99 ± 28.2 min; AUC(0-t) ([3]; 10 mg/kg, oral (gavage)): 394 ± 174 ng·h/mL; Tmax ([3]; 10 mg/kg, oral (gavage)): 25.2 ± 7.2 min; half-life ([3]; 10 mg/kg, oral (gavage)): 82.8 ± 4.2 min |

Now from value to molecule, other results behind:

| EC50 [1] | Compound | also measured |
| --- | --- | --- |
| 10 nM | Nc1c(Cl)cc(-c2nnc(C3CCN(C4CCC4)CC3)o2)c2c1CCO2 [Example 28, 5-Chloro-7-[5-(1-cyclobutyl-piperidin-4-yl)-[1,3,4]oxadiazol-2-yl]-2,3-dihydro-benzofuran-4-ylamine oxalate salt] | – |
| 21 nM | Nc1c(Cl)cc(-c2nnc(C3CCN(CC4CCOCC4)CC3)o2)c2c1CCO2 [Example 33, 5-Chloro-7-{5-[1-(tetrahydro-pyran-4-ylmethyl)-piperidin-4-yl]-[1,3,4]oxadiazol-2-yl}-2,3-dihydro-benzofuran-4-ylamine oxalate] | – |
| 60 nM | Nc1c(Cl)cc(-c2nnc(C3CCN(C4CC4)CC3)o2)c2c1CCO2 [Example 27, 5-Chloro-7-[5-(1-cyclopropyl-piperidin-4-yl)-[1,3,4]oxadiazol-2-yl]-2,3-dihydro-benzofuran-4-ylamine oxalate salt] | – |
| 25 nM | Nc1c(Cl)cc(-c2nnc(C3C4CN(CC5CC5)CC43)o2)c2c1CCCO2 (stereo not drawn) [Example 24, 6-Chloro-8-[5-(3-cyclopropylmethyl-3-aza-bicyclo[3.1.0]hex-6-yl)-[1,3,4]oxadiazol-2-yl]-chroman-5-ylamine] | – |
| 16.9 nM | COCCCN1CCC(c2nnc(-c3cc(Cl)c(N)c4c3OCCO4)o2)CC1 [Example 31, 6-Chloro-8-{5-[1-(3-methoxy-propyl)-piperidin-4-yl]-[1,3,4]oxadiazol-2-yl}-2,3-dihydro-benzo[1,4]dioxin-5-ylamine oxalate salt] | – |
| 21.5 nM | Nc1c(Cl)cc(-c2nnc(C3CCN(C4CC4)CC3)o2)c2c1OCCO2 [Example 29, 6-Chloro-8-[5-(1-cyclopropyl-piperidin-4-yl)-[1,3,4]oxadiazol-2-yl]-2,3-dihydro-benzo[1,4]dioxin-5-ylamine oxalate salt] | – |
| 181 nM | CC(C)n1nc(-c2nnc(CCN3CCCCC3)o2)c2ccccc21 [Example 49, 1-Isopropyl-3-[5-(2-piperidin-1-yl-ethyl)-[1,3,4]oxadiazol-2-yl]-1H-indazole oxalate] | – |
| 5 nM | CCOC(=O)N1CCC(N2CCC(c3nnc(-c4cc(Cl)c(N)c5c4OCC5)o3)CC2)CC1 [Example 34, 4-[5-(4-Amino-5-chloro-2,3-dihydro-benzofuran-7-yl)-[1,3,4]oxadiazol-2-yl]-[1,4′]bipiperidinyl-1′-carboxylic acid ethyl ester oxalate] | – |
| 7.3 nM | Nc1c(Cl)cc(-c2nnc(C3CCN(C4CCOCC4)CC3)o2)c2c1OCCO2 [Example 30, 6-Chloro-8-{5-[1-(tetrahydro-pyran-4-yl)-piperidin-4-yl]-[1,3,4]oxadiazol-2-yl}-2,3-dihydro-benzo[1,4]dioxin-5-ylamine oxalate salt] | – |
